Consider four compounds from PMC7758422, “Design, Synthesis, and Antitumor Activities Study of Stapled A4K14-Citropin 1.1 Peptides” (Frontiers in Chemistry, 2020).

The data set in a line: on-resin all-hydrocarbon stapling by ring-closing metathesis of S5/S5 (i,i+4) or R8/S5 (i,i+7), Grubbs first-generation catalyst (0.45 mmol per 0.15 mmol resin, 3 equiv), then TFA/TIPS/phenol/H2O cleavage and RP-HPLC. To be noted: the molecule shown is the open-chain precursor, 25.0 °C, 4.0 h, 36 steps.
Setting [1] is: 33-membered ring, 1,2-dichloroethane.
The mark [2] stands for this setting: 21-membered ring, 1,2-dichloroethane.

Turning to `C=CCCCCCC[C@@](C)(NC(=O)CNC(C)=O)C(=O)N[C@@H](Cc1ccccc1)C(=O)N[C@@H](C)C(=O)N[C@H](C(=O)N[C@H](C(=O)N[C@@H](CCCCNC(=O)OC(C)(C)C)C(=O)N[C@@H](CCCCNC(=O)OC(C)(C)C)C(=O)N[C@@](C)(CCCC=C)C(=O)N[C@@H](C)C(=O)N[C@@H](COC(C)(C)C)C(=O)N[C@H](C(=O)N[C@H](C(=O)N[C@@H](CCCCNC(=O)OC(C)(C)C)C(=O)NCC(=O)N[C@@H](CC(C)C)C(N)=O)[C@@H](C)CC)C(C)C)[C@@H](C)CC)C(C)C`, under setting [1], the ring closure, overall yield worked out at 63 % yield.

Turning to `C=CCCC[C@](C)(NC(=O)[C@@H](NC(=O)[C@H](C)NC(=O)[C@H](Cc1ccccc1)NC(=O)[C@H](CC(C)C)NC(=O)CNC(C)=O)C(C)C)C(=O)N[C@@H](CCCCNC(=O)OC(C)(C)C)C(=O)N[C@@H](CCCCNC(=O)OC(C)(C)C)C(=O)N[C@H](C(=O)N[C@@](C)(CCCC=C)C(=O)N[C@@H](COC(C)(C)C)C(=O)N[C@H](C(=O)N[C@H](C(=O)N[C@@H](CCCCNC(=O)OC(C)(C)C)C(=O)NCC(=O)N[C@@H](CC(C)C)C(N)=O)[C@@H](C)CC)C(C)C)C(C)C`, the ring closure, overall yield under setting [2] is 71 % yield.

For `C=CCCC[C@](C)(NC(=O)[C@H](C)NC(=O)[C@@H](NC(=O)[C@H](CCCCNC(=O)OC(C)(C)C)NC(=O)[C@H](CCCCNC(=O)OC(C)(C)C)NC(=O)[C@@H](NC(=O)[C@@H](NC(=O)[C@H](C)NC(=O)[C@H](Cc1ccccc1)NC(=O)[C@H](CC(C)C)NC(=O)CNC(C)=O)C(C)C)[C@@H](C)CC)C(C)C)C(=O)N[C@H](C(=O)N[C@H](C(=O)N[C@@H](CCCCNC(=O)OC(C)(C)C)C(=O)N[C@@](C)(CCCC=C)C(=O)N[C@@H](CC(C)C)C(N)=O)[C@@H](C)CC)C(C)C`, under setting [2], the ring closure, overall yield came to 62 % yield.

Regarding `C=CCCCCCC[C@@](C)(NC(=O)[C@@H](NC(=O)[C@H](C)NC(=O)[C@H](Cc1ccccc1)NC(=O)[C@H](CC(C)C)NC(=O)CNC(C)=O)C(C)C)C(=O)N[C@@H](CCCCNC(=O)OC(C)(C)C)C(=O)N[C@@H](CCCCNC(=O)OC(C)(C)C)C(=O)N[C@H](C(=O)N[C@@H](C)C(=O)N[C@@H](COC(C)(C)C)C(=O)N[C@H](C(=O)N[C@@](C)(CCCC=C)C(=O)N[C@@H](CCCCNC(=O)OC(C)(C)C)C(=O)NCC(=O)N[C@@H](CC(C)C)C(N)=O)C(C)C)C(C)C`, the ring closure, overall yield under setting [1] amounted to 62 % yield.
